Results as given in paper PMC12019328, “Discovery of an ApoE4-targeted small-molecule SirT1 enhancer for the treatment of Alzheimer’s disease” (Scientific Reports, 2025).
Values after ≈ are worked out from the molar mass of the structure shown. “Also recorded” adds a separate entry of the source.

Assays:
[1] = system: SirT1 mRNA in N2a-E4 cells; test: SirT1 mRNA in N2a-E4 cells (qRT-PCR); format: cell-based, murine; settings: 5 µM, 24 h, normalized to GAPDH and DMSO
Procedure: Relative SirT1 mRNA and protein enhancement by racemate DDL-214 and enantiomers DDL-218 and − 219 was determined in murine neuroblastoma cells stably transfected with ApoE4 (N2a-E4)[25]. All test compounds in DMSO were prepared at 2x the final concentration in DMEM supplemented with 10% fetal bovine serum (FBS) and 1% pen-strep (PS) and 50 µL of each loaded into individual wells of a 96-well plate. Previously cultured N2a-E4 were then trypsinized, harvested, centrifuged, and counted; then 50 µL of cell suspension adjusted to 400 cells/µL was added to each well. The plate was then incubated at 37 °C, 5% CO2 for 48 h. Cells were treated with DDL-214, DDL-218, or DDL-219 at 5 µM final then incubated for 24 h. […]
(§1) Total RNA was isolated from cells or brain tissue (Qiagen RNEasy kit). Total RNA (0.5–1.0 µg) mRNA was then converted to cDNA (SuperScript™ III First-Strand Synthesis SuperMix kit; Thermo Fisher), and gene mRNA levels were measured using a gene-specific qRT-PCR Taqman assays (Thermo Fisher). Gene mRNA levels were normalized to GAPDH mRNA levels measured either in the same cDNA sample or in the same qPCR reaction using multiplexing of gene-of-interest/VIC and GAPDH/FAM, normalized by the delta-delta-Ct method.

[2] = system: PPP2r5e mRNA in Kelly cells; test: PPP2r5e mRNA in Kelly neuroblastoma cells; format: cell-based, human; settings: 5 µM, 24 h, vs DMSO
Procedure: Human neuroblastoma ‘Kelly’ cells (genotype APOE3/APOE4) were plated in 96-well plates at 50K cells per well and were grown overnight in RPMI 1640 supplemented with 2 mM Glutamine, 10% FBS and 1% Pen-Strep. Cells were treated with 5 µM DDL-214, -218, or -219; or DMSO vehicle (n = 8 per compound). Twenty-four hours later, medium was removed, cells washed and lysed as described above for N2a-E4 cells.
as §1

SirT1 promoter = test: ChIP analysis of SirT1 promoter occupancy in brain tissue of ApoE4-TR:5xFAD mice; format: in vivo; settings: vs Veh
Procedure: 17-371) following manufacturer's instructions. Brain was frozen to -80C, then powdered on dry
ice and split for either RNA analysis or for the ChIP assay, approximately ~100mg powderized
tissue was fixed in formaldehyde. For cultured cells in vitro, cells were fixed in each well and
harvested by scraping. Samples were sonicated to break chromatin into 200-1000bp fragments
(according to previously optimized conditions), using a Epishear programmable sonicator (Active
Motif), and aliquots were subjected to immunoprecipitation with antibodies against either apoE4
(Novus), RNA Polymerase (supplied in the Ez-ChIP kit), or mouse IgG (isotype matched).
Immunoprecipitated chromatin was subjected to conditions that reversed the cross-links, and
DNA was purified. The immunoprecipitated DNA was measured for the level of immuno-captured
SirT1 gene promoter sequence using qPCR with PCR primers that bind flanking the SirT1 CLEAR
sequence. PCR produced an amplicon of 125bp with the CLEAR site near one end, the CLEAR
sequence is bold underlined in the following 125bp PCR amplicon:
PCR amplification Ct values for apoE4 and RNAP were normalized to the levels obtained for
IgG and further normalized to the level of input DNA. This level of immuno-captured DNA indicates
the level of apoE4 or RNAP occupancy of CLEAR site region of the SirT1 gene promoter.
Figure S7. SirT1 promoter binding by RNA polymerase and ApoE4. […]

Kinetic solubility = format: physicochemical; settings: aqueous buffer, kinetic from dmso stock, PBS pH 7.4, 37°C
Procedure: supernatants were transferred to new tubes and lyophilized. Samples were reconstituted in 100 µL of 50/50/0.1 (Water/Acetonitrile/Formic Acid) prior to analysis via liquid chromatography-tandem mass spectrometry (LC-MS/MS).
Normalized chromatographic peak areas was plotted at each time point and the half-life (T1/2) of compound in liver microsomes was determined by using the trendline equation to calculate the time at which compound abundance was 50% of that at timepoint 0 (T0).
Kinetic solubility was assessed by separately diluting a test compound solution (10 mM, 100% DMSO) into the aqueous buffer (PBS pH 7.4) and DMSO at 100 μM, 100 μL total volume.
The solutions were then incubated at 37°C for 90 min and centrifuged (16000xg, 5 min). An aliquot (50 µL) of each supernatant was analyzed by LC-MS/MS.
Five standard concentrations (100, 10, 1, 0.1, and 0, DMSO) in duplicates were incubated at 37°C for 90 min and centrifuged (16000xg, 5 min). Aliquots (50 µL) of supernatant were analyzed by LC-MS/MS to create the standard curve.
Table S2. DDL-218 Physiochemical Properties
Kinetic solubility (μM) 64.4
Brain Tissue Binding [fu,bound (%)] 43 […]

## CC(N)C(=O)OC(C)(C)Cc1ccncc1 (centres unmarked) [DDL-218]
[1]
  SirT1 mRNA: greatest increase; also recorded: significantly increased SirT1 mRNA
[2]
  PPP2r5e mRNA: significantly increased
SirT1 promoter
  ApoE4 binding to the SirT1 promoter: lower, but the effect was not significant
  RNAP binding to the SirT1 promoter: significantly increased
Kinetic solubility
  solubility kinetic at 90 min: 64.4 µM (≈ 14.3 µg/mL)
